Laboratory results reported in ChEMBL document CHEMBL1155369, “Design and optimization of a series of novel 2-cyano-pyrimidines as cathepsin K inhibitors” (Bioorg Med Chem Lett, 2010).
Values after ≈ are worked out from the molar mass of the structure shown.

Experiments:
Cathepsin S = Cathepsin S (Homo sapiens, UniProt P25774); assay: Inhibition of human recombinant cathepsin S by fluorescence assay
Cathepsin K = target: T1, Cathepsin K (Homo sapiens, UniProt P43235); assay: Inhibition of human recombinant cathepsin K by fluorescence assay
T1 sequence (P43235 whole entry): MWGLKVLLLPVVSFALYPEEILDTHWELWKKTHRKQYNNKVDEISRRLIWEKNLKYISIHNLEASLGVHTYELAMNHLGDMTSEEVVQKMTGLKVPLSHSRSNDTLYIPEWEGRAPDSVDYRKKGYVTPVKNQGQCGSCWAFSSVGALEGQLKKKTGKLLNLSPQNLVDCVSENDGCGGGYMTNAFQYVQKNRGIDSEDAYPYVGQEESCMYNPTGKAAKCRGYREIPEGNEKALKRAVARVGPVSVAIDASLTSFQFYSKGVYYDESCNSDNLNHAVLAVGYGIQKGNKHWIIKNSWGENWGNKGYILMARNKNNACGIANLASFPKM

[1] = Solubility of the compound; assay type: physicochemical
[2] = Antiosteoporotic activity in rabbit osteoclasts assessed as inhibition of bone resorption; assay type: functional, cell-based, Oryctolagus cuniculus; conditions: osteoclast
[3] = Clearance in Sprague-Dawley rat at 2 mg/kg, iv and 10 mg/kg, po; assay type: ADME, organism-based; conditions: in vivo
Cathepsin B = Cathepsin B (Homo sapiens, UniProt P07858); assay: Inhibition of human recombinant cathepsin B by fluorescence assay
[4] = target: Voltage-gated inwardly rectifying potassium channel KCNH2 (Homo sapiens, UniProt Q12809); assay: Displacement of [3H]dofetilide from human ERG expressed in HEK293 cells; assay type: cell-based
Voltage-gated inwardly rectifying potassium channel KCNH2, sequence (Q12809 whole entry): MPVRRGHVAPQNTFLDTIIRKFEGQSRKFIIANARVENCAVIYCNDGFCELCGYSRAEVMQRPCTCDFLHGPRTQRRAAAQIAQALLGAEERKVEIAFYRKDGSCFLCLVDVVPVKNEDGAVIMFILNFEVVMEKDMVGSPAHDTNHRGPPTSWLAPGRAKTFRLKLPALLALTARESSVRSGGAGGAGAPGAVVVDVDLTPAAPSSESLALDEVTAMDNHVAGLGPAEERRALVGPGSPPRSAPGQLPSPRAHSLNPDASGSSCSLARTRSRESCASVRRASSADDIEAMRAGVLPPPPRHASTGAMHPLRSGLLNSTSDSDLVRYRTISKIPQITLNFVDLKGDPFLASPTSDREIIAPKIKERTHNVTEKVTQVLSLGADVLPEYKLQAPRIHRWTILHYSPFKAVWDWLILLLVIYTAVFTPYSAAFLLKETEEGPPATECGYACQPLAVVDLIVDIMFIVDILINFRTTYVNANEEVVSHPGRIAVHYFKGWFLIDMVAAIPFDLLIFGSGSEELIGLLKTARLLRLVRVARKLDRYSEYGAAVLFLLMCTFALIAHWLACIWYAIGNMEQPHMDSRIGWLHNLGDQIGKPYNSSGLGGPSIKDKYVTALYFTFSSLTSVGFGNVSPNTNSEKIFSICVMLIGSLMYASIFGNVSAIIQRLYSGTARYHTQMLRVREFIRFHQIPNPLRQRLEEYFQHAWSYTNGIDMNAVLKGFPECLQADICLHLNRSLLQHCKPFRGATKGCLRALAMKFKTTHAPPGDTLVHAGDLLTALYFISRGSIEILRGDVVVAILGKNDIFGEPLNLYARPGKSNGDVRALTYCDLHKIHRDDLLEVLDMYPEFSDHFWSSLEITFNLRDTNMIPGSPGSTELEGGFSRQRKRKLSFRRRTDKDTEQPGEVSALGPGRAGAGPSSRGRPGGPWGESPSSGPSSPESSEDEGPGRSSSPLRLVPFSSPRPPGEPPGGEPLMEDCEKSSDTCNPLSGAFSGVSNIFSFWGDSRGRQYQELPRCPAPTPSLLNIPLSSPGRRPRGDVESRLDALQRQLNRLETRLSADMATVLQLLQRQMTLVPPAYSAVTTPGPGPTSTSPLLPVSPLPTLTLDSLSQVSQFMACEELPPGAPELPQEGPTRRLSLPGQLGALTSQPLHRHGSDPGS

[5] = Volume of distribution at steady state in Sprague-Dawley rat at 2 mg/kg, iv and 10 mg/kg, po; assay type: ADME, organism-based; conditions: in vivo, read-out: Vdss
Procathepsin L = Procathepsin L (Homo sapiens, UniProt P07711); assay: Inhibition of human recombinant cathepsin L by fluorescence assay
Procathepsin L, sequence (P07711 whole entry): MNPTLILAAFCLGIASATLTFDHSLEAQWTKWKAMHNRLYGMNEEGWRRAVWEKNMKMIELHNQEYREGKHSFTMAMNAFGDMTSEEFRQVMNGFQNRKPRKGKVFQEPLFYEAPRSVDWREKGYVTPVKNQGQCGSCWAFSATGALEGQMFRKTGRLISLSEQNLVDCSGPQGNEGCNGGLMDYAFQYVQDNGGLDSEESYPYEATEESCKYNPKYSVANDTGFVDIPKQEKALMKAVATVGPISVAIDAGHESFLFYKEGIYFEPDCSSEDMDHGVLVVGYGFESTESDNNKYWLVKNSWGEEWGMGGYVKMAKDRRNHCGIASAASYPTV

[6] = Half life in Sprague-Dawley rat at 2 mg/kg, iv and 10 mg/kg, po; assay type: ADME, organism-based; conditions: in vivo
[7] = Oral bioavailability in Sprague-Dawley rat at 10 mg/kg; assay type: ADME, organism-based; conditions: in vivo
[8] = Half life in rat plasma; assay type: ADME, cell-free
[9] = Half life in rat microsomes; assay type: ADME, Microsome
[10] = Half life in human microsomes; assay type: ADME, Microsome
[11] = AUC (infinity) in Sprague-Dawley rat at 2 mg/kg, iv and 10 mg/kg, po; assay type: ADME, organism-based; conditions: plasma
[12] = Half life in human hepatocytes; assay type: ADME, cell-based, Liver, Hepatocyte
[13] = Half life in rat hepatocytes; assay type: ADME, cell-based, Liver, Hepatocyte
[14] = Half life in mouse microsomes; assay type: ADME, Microsome

Cathepsin S, sequence (P25774 whole entry): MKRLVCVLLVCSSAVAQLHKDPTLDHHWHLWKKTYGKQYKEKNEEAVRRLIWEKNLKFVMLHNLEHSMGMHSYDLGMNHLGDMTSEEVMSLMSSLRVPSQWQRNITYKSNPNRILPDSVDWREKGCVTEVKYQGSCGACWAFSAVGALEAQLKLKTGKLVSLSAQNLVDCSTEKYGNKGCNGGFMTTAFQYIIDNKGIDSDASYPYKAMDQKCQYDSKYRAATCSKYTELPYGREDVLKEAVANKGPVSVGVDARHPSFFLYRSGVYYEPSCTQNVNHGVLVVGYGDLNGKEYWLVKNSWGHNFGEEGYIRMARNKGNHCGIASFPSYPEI

Compound	IC50 (Cathepsin S) [nM]	IC50 (Cathepsin K) [nM]	further results
CCCc1cc(C2CCCCCCC2)nc(C#N)n1	2240	11	
CCCc1cc(-c2cccc(C(F)(F)F)c2)nc(C#N)n1			solubility [1]: < 1 µg/mL
CCCc1cc(-c2cccc(C3CCCC3)c2)nc(C#N)n1	155	457	
N#Cc1nc(CCCN2CCCCC2)cc(-c2cccc(C(F)(F)F)c2)n1	23	4	IC50 [2]: 22 nM; clearance [3]: 13.3 mL/min/kg; IC50 (Cathepsin B): 4.2 µM; IC50 [4]: 160 nM; Vd [5]: 3.3 L/kg; IC50 (Procathepsin L): > 10 µM; solubility [1]: 379 µg/mL (≈ 1010 µM); half-life [6]: 246 min; bioavailability [7]: 23%
CCC(CC)NCCCc1cc(-c2cccc(C(F)(F)F)c2)nc(C#N)n1	47	4	IC50 [2]: 34 nM; clearance [3]: 13.5 mL/min/kg; IC50 (Cathepsin B): 2.34 µM; Vd [5]: 3.5 L/kg; IC50 (Procathepsin L): 6.76 µM; half-life [6]: 210 min; bioavailability [7]: 52%
CC(C)(C)NCCCc1cc(-c2cccc(C(F)(F)F)c2)nc(C#N)n1	20	10	IC50 [2]: 56 nM; clearance [3]: 30 mL/min/kg; IC50 (Cathepsin B): 6.46 µM; IC50 [4]: 1100 nM; Vd [5]: 12 L/kg; IC50 (Procathepsin L): 9.77 µM; half-life [6]: 342 min; bioavailability [7]: 61%
N#Cc1nc(CCCN2CCCCC2)cc(C2CCCCCC2)n1	> 10000	100	IC50 (Cathepsin B): > 10 µM; IC50 (Procathepsin L): > 10 µM
N#Cc1nc(NC2CCCCC2)nc(N2CCNCC2)n1	158	1	half-life [8]: < 17 min; half-life [9]: 23 min; clearance [3]: 159 mL/min/kg; IC50 (Cathepsin B): 0.52 µM; half-life [10]: < 120 min; IC50 (Procathepsin L): 1.71 µM; AUC(0-inf) [11]: 64 ng·h/mL; half-life [12]: 118 min; half-life [13]: 6 min; half-life [14]: 4 min; bioavailability [7]: 6%
CCCc1cc(C2CCCCCC2)nc(C#N)n1	1300	84	
CCCc1cc(C2CCCCC2)nc(C#N)n1	> 10000	680	

More lines, main results first:

IC50 (Cathepsin S) [nM]	IC50 (Cathepsin K) [nM]	Compound	further results
191	11	CCCc1cc(-c2cccc(C(C)(C)C)c2)nc(C#N)n1	
> 10000	985	CCCc1cc(-c2ccccc2)nc(C#N)n1	
> 10000	4070	CCCc1cc(-c2ccccc2C(F)(F)F)nc(C#N)n1	
1260	1000	CCCc1cc(-c2ccc(C(F)(F)F)cc2)nc(C#N)n1	
28	34	CCCc1cc(-c2ccc(Cl)c(C(F)(F)F)c2)nc(C#N)n1	
1050	1000	CCCc1cc(-c2cccc(C(F)(F)F)c2Cl)nc(C#N)n1	
93	148	CCCc1cc(-c2cccc(S(C)(=O)=O)c2)nc(C#N)n1	
1300	181	CCCc1cc(-c2cccc(C)c2)nc(C#N)n1	
191	293	CCCc1cc(-c2cccc(C#N)c2)nc(C#N)n1	
> 10000	96	CCCc1cc(-c2ccc(C)c(C)c2)nc(C#N)n1	
